Read-outs that look alike come from different tables or passages of the source.

Data on 5 compounds can be found in patent publication US20090011975A1, “TARGETED BONE MARROW PROTECTION AGENTS” (Semafore Pharmaceuticals Inc., priority 2003, published 2009).

Data set [1] can be described thus: Reversibility of acyl methylenes in phosphate buffer. The data set is classed as physicochemical. Conditions: 50 mM phosphate buffer. The protocol:
A prodrug strategy was devised using cyclized PFT-β and a structure activity relationship to obtain a prodrug linkage that converts to the native drug with about a 3 day half-life. A key novel intermediate (BI) (the chemical structure of which is set forth in FIG. 22) was generated in greater than 90% yield and >95% purity. […] This allowed preparation of the acyl methylene compounds recited in Table 2. All of the compounds of Table 2 were diluted into 50 mM phosphate buffer at pH=7.4 and pH=4.8 at room temperature and analyzed over time for stability. The amount of PFT-β was quantitated, and the amount of acyl methylene disappearing over time was quantitated by LCMS. A half-life for the cleavage of the acyl methylenes to generate PFT-β under relevant physiological conditions was determined. These half lives are set forth in Table 2 associated with the structures.

A short description of data set [2]: Affinity of bone targeting agents to hydroxyapatite (supernatant LCMS). The data set is classed as binding. The settings on record: 0.100 mM test solution in TBS pH 7.40, HA suspension 1.00 or 10.0 mg/ml, 1 hour (FIG. 25). As for the experimental part: To determine the affinity of the bone targeting agents to hydroxyapatite, the method described in Willson et al., Biorganic & Medicinal Chemistry Letters, 6(9), 1043-1046 (1996) for determining bone affinity using HPLC retention on a hydroxyapatite column was modified. The affinity of several bone targeting agents was determined using the following method. […] The suspension was diluted to prepare a 1.00 mg/ml HA suspension by stirring on a magnetic stir plate at the slowest speed necessary to create a uniform suspension appropriate for sampling. Each tested compound was dissolved in TBS at a concentration of 0.100 mM. 200 μl of test solution was mixed with 200 μl of TBS, HA at 1.00 mg/ml, or HA at 10.0 mg/ml, and agitated on an orbital shaker at 200 rpm for 1 hour. Each experiment was performed in triplicate. The supernatant solution was analyzed using single ion monitoring (SIM) mass spectral mode on a Shimadzu LCMS-2010 liquid chromatograph-mass spectrometer. The SIM counts in the test compound/TBS solutions were set at 100%. The amount of test compound present in the HA supernatant test solutions was expressed as a percentage of the amount of test compound available with no hydroxyapatite present. Tetracycline was included as a positive control.

In data set [3] the test system is p53-mediated transcription. In words: p53-mediated transcription, MASPIN promoter-luciferase in HBECs. It is filed as cell-based, human. Conditions: PFT-β liberated from (BH) on hydroxyapatite, HBECs transfected with wild type p53 plasmid (FIG. 27). As for the experimental part: The binding to hydroxyapatite to the bone targeted prodrug (BH) and its conversion over time to liberate PFT-β was described in Example 10. The PFT-β liberated (5.11 millimolar solution from Example 10) was assayed for its biological activity by evaluating the degree of p53-mediated transcription in the presence and absence of the liberated PFT-β. The assay comprised transiently transfecting human brain endothelial cells (HBECs) with a plasmid comprising the MASPIN promoter, which contains two p53 binding sites, operably linked to the luciferase gene. A group of HBECs was transiently transfected with a plasmid encoding wild type p53. Thus, if p53 produced in the transfected HBECs is active, transcription of the luciferase gene will be activated and the produced luciferase detected. p53-mediated transcription is measured relative to the internal control plasmid pCMVβ-galactosidase to control for transfection efficiency.
The results of the assay are set forth in the bar graph of FIG. 27, the data of which represents fold induction of p53-specific transcriptional activity in HBECs. Column 1 of FIG. 27 represents a negative control resulting from HBECs not transfected with the wild type p53 plasmid. Column 2 of FIG. 27 represents data obtained from HBECs transfected with the wild type p53 plasmid which were not exposed to PFT-β. […]

Data set [4] is described as follows: Conversion of PFT-α to PFT-β in human serum. It is filed as in vitro ADME. The settings on record: for peak area (254 nm), Human Serum Stability: PFT-α initially 50 μMolar, 37° C. As for the experimental part:
(§1) A 10.0 mMolar solution of PFT-α in DMSO was prepared. A 5 μL aliquot of the solution was diluted with 495 μL of methanol, and further diluted with 500 μL of acetonitrile to produce a comparison standard 50 μMolar solution. Five 5 μL aliquots of 10.0 mMolar solution of PFT-α in DMSO was added to each of five plastic vials containing 495 μL of human serum (Sigma-Aldrich), and the vials were capped. The solution was mixed thoroughly and allowed to stand at 37° C. At different timepoints, each of the 5 vials were removed from heat, cooled to room temperature, and the solution was diluted with 500 μL of acetonitrile to precipitate proteins and nondesirable solutes. Each mixture was vortexed vigorously, passed through a 0.2 um Whatman Uniprep sample filter device, and analyzed by LC-MS (the methods of which are described in Example 12). The UV areas for the peak corresponding to PFT-α (retention time=1.8 minutes) and for the peak corresponding to PFT-β (retention time=3.9 minutes) were tabulated.

A short description of a further data set: Aqueous solubility. The data set is classed as physicochemical.
Data set [5] is described as follows: Conversion of PFT-α to PFT-β in phosphate buffer pH 7.4. It is filed as physicochemical. Conditions: for peak area (254 nm), Phosphate Buffer pH = 7.4 Stability: PFT-α initially 50 μMolar, 37° C. As for the experimental part: as §1
The method set forth above was repeated wherein 50 mMolar phosphate buffer (pH=7.4) was substituted for human serum.

Data set [6] deals with C57BL strain and Balb/c strain mice. Conditions: cited from earlier work.
For a further data set, the system named is p53-null mice. The settings on record: PFT-α injections; cited from earlier work.
Data set [7] has as its system C8 cells (mouse embryo fibroblasts transformed with E1a+ras). Conditions: cited from earlier work.
The nature of data set [8]: Binding of (BH) to hydroxyapatite and resistance to washing. The protocol:
The final conjugate (BH) (see Table 2) was synthesized (assembled) as described and purified by HPLC. […] A 900 μL aliquot of 1.9 mM (BH) in 5 mM phosphate buffer at pH=7 was mixed with 100 μL of an hydroxyapatite suspension (25 weight percent hydroxyapatite; Sigma) containing approximately 25 mg of hydroxyapatite. The suspension was mixed gently for 15 minutes and then centrifuged at 10,000 rpm for one minute. A 100 μL aliquot was removed and analyzed by electrospray LCMS and compared to a standard solution that had not been exposed to hydroxyapatite. […] The supernatant was decanted from the hydroxyapatite solid, an additional 900 μL of de-ionized water was added, and the mix was shaken vigorously for 20 seconds. The suspension was then centrifuged at 10,000 rpm for one minute. A 100 μL aliquot of suspension was removed and analyzed by electrospray LCMS and compared to the standard solution that had not been exposed to hydroxyapatite. […] The supernatant was decanted from the hydroxyapatite solid, an additional 900 μL of de-ionized water was added, and the mix was shaken vigorously for 20 seconds. The suspension was then centrifuged at 10,000 rpm for one minute. A 100 μL aliquot was removed and analyzed by electrospray LCMS and compared to the standard solution. […] Thus, of the original 1.74 μMoles of (BH) present in the supernatant and exposed to the hydroxyapatite, a total of 0.48 μMoles was recovered in the original supernatant plus the two water washes.

A short description of data set [9]: Liberation of PFT-β from hydroxyapatite-bound (BH) over time. The data set is classed as physicochemical. The protocol: The hydroxyapatite of the suspension was then resuspended in wash number 2 supernatant by pipetting up and down. A 20 μL aliquot of the resulting 900 μL suspension was removed and extracted with methanol. An analysis of the methanol extract by LCMS (versus a standard of (BH)) indicated no detectable (BH) was extractable from the hydroxyapatite sample known to contain the 1.26 μMoles of (BH) described above. […] The suspension was then gently rocked for 34 hours. A 20 μL aliquot was removed and analyzed after extraction with methanol. […] An addition aliquot of the gently mixed suspension was obtained after a total 153 hours contained no detectable, extractable (BH).

[10] abbreviates: pH 4.8, room temperature, read-out: Half Life pH = 4.8.
[11] abbreviates: pH 7.4, room temperature, read-out: Half Life pH = 7.4 (converted).

The term half-life denotes the time in which the quantity being followed falls by half. Turning to `CC(=O)OC[n+]1c(-c2ccc(C)cc2)cn2c3c(sc21)CCCC3` [BG], the half-life at 100 µM in [1] (setting [10]) and in data set [1] (setting [11]) was greater than 20.8 days in each case.

As to Phenyphosphonic acid [BK], in data set [2], the affinity to hydroxyapatite entry is “no observable affinity”.

Consider `Cc1ccc(-c2cn3c4c(sc3n2)CCCC4)cc1` [PFT-β, 2-p-Tolyl-5,6,7,8-tetrahydro-benzo[d]imidazo[2,1-b]thiazole], for which the “biological activity (inhibition of p53-mediated transcription)” value in data set [3] is recorded as “biologically active”. The “peak area (254 nm), Human Serum Stability” value in [4] (0 hours) is listed as 13781; in [4] (1.5 hours), 259004; in [4] (3 hours), 448826; in data set [4] (4.5 hours) it was 512198; in data set [4] (17 hours), 696098. In addition, the aqueous solubility entry in “Aqueous solubility” is listed as “about 3 μMolar”. The “peak area (254 nm), Phosphate Buffer pH = 7.4 Stability” value is recorded as 13032 in data set [5] (0 hours); 176201 in [5] (1.5 hours); 307793 in [5] (3 hours); 427152 in [5] (4.5 hours); 601840 in [5] (17 hours).

In the case of `Cc1ccc(C(=O)Cn2c3c(sc2=N)CCCC3)cc1` [PFT-α, 2-[2-imino-4,5,6,7-tetrahydro-1,3-benzothiazol-3(2H)-yl]-1-(4-methylphenyl)-1-ethanone], the “peak area (254 nm), Human Serum Stability” value is recorded as 547169 in [4] (0 hours); 312351 in data set [4] (1.5 hours); 156823 in [4] (3 hours); 118842 in data set [4] (4.5 hours); 7927 in data set [4] (17 hours). Moreover, the “time in which half of PFT-α is converted to PFT-β” value in [4] (human serum, initial 50 μMolar) was “about 3 hours”; in data set [5] (phosphate buffer, initial 50 μMolar), “about 1.8 hours”. The “tumors or pathological lesions in gamma-irradiated survivors” value in [6] (7 months post-irradiation) was “No tumors or pathological lesions”. For the same compound, the “rescue from 60% killing doses of gamma radiation” value in data set [6] (single intraperitoneal injection 2.2 mg/kg, 8 Gy C57BL, 6 Gy Balb/c) is “completely rescued”. For the same compound, in data set [6] (treated irradiated animals), the weight-loss versus controls result is on record as “less weight-loss than controls”. Moreover, the “peak area (254 nm), Phosphate Buffer pH = 7.4 Stability” value turned out to be 584109 in data set [5] (0 hours); 448284 in [5] (1.5 hours); 303800 in data set [5] (3 hours); 227004 in [5] (4.5 hours); 18724 in [5] (17 hours). Further, the “protective effect in p53-null mice treated with radiation” value in the data set with p53-null mice is on record as “no protective effect”. In addition, the “inhibition of apoptosis induced by doxorubicin, etoposide, paclitaxel, cytosine arabinoside, UV light, and gamma radiation” value in data set [7] (10 micromolar concentration) is “inhibited apoptosis”. Also, the “protection on pretreatment of cells and removal of the compound before the stress-inducing event” value in data set [7] (pretreatment, compound removed before stress) was “no significant protection”.

With `Cc1ccc(-c2cn3c4c(sc3[n+]2COC(=O)c2ccc(CN(CP(=O)(O)O)CP(=O)(O)O)cc2)CCCC4)cc1` [BH], in data set [8] (1.9 mM in 5 mM phosphate buffer pH 7, approx. 25 mg hydroxyapatite, 15 minutes), the “originally present (BH) bound to the hydroxyapatite solid” value stood at 77%. In [8] (900 μL de-ionized water wash 1), the “originally present (BH) in the supernatant, wash number 1” value was found to be 3.5%. Besides, the “originally present (BH) in the supernatant, wash number 2” value in [8] (900 μL de-ionized water wash 2) was determined as 0.6%. Moreover, the “(BH) remained in the supernatant solution” value in [8] (after 15 minutes with hydroxyapatite) was found to be 23%. In addition, the “(BH) adsorbed to the hydroxyapatite so as to resist washing off” value in data set [8] (of original 1.74 μMoles) amounted to 1.26 µmol. In addition, the “total recovered in the original supernatant plus the two water washes” value in data set [8] (of original 1.74 μMoles) worked out at 0.48 µmol. Also, the half-life at 100 µM in data set [1] (setting [10]) was greater than 20.8 days; in data set [1] (setting [11]), 3.23 days. Also, the “(BH) extractable with methanol from hydroxyapatite” value in [9] (34 hours) is “no detectable”; in [9] (105 hours), “no detectable”; in data set [9] (153 hours), “no detectable”; in [9] (start, after washes) it was “no detectable”. For the same compound, the “prodrug cleavage product PFT-β, percent of the 1.26 μMoles sorbed” value in data set [9] (34 hours) is given as 19.6%; in [9] (105 hours) it was 29.1%; in data set [9] (153 hours) it was 37.5%; in data set [9] (start, after washes), less than 7%. Further, the affinity to hydroxyapatite entry in data set [2] is “almost identical to that of (BC)”.
